For series [1], the system named is Cerebral cortex. In words: Drug uptake in Sprague-Dawley rat Cerebral cortex at 29.1 MBq after 70 to 100 mins post injection by PET imaging. The series is classed as ADME, tissue-based. As to conditions: in vivo; call rule not given here.
The nature of series [2]: Drug uptake in Sprague-Dawley rat salivary gland at 29.1 MBq after 70 to 100 mins post injection by PET imaging. The series is classed as ADME, tissue-based. As to conditions: in vivo.
Series [3] can be described thus: Drug uptake in Sprague-Dawley rat thyroid gland at 29.1 MBq after 70 to 100 mins post injection by PET imaging. Format: ADME, tissue-based. As to conditions: in vivo.
The test system of series [4] is Rattus norvegicus. In words: Drug uptake in Sprague-Dawley rat at 29.1 MBq after 70 to 100 mins post injection coadministered with 1 mg/kg ST900 by PET imaging. Format: ADME, organism-based. On the set-up: dose 1 mg/kg. The note with it: in vivo.
Series [5] is described as follows: Drug uptake in Sprague-Dawley rat intraorbital lacrimal gland at 29.1 MBq after 70 to 100 mins post injection by PET imaging. The series is classed as ADME, tissue-based. The note with it: in vivo.
A short description of series [6]: Metabolic stability human plasma assessed as compound degradation at 60 MBq after 120 mins by UPLC analysis. Format: ADME, cell-free. As to conditions: read-out: Drug degradation.
For series [7], the system named is Rattus norvegicus. Put plainly: Drug uptake in Sprague-Dawley rat at 29.1 MBq after 70 to 100 mins post injection coadministered with 2 mg/kg ciproxifan by PET imaging. On the set-up: dose 2 mg/kg. The series is classed as ADME, organism-based. As to conditions: in vivo.
The subject of series [8] is MDR1. Put plainly: Apparent permeability from apical to basolateral side in MDCK2 cells expressing MDR1 by gamma counting. As to conditions: dog, MDCK-MDR1. The series is classed as ADME, cell-based, Canis lupus familiaris, MDCK-II.
Series [9] relates to Thalamus. In words: Drug uptake in Sprague-Dawley rat thalamus at 0.01 nM in presence of 100 uM histamine after 45 mins by autoradiography. The series is classed as ADME, tissue-based. As to conditions: 10 pM.
The subject of series [10] is Striatum. Put plainly: Drug uptake in Sprague-Dawley rat striatum at 0.01 nM in presence of 100 uM histamine after 45 mins by autoradiography. The series is classed as ADME, tissue-based. As to conditions: 10 pM.
For series [11], the system named is Hippocampus. Put plainly: Drug uptake in Sprague-Dawley rat hippocampus at 0.01 nM after 45 mins by autoradiography. Format: ADME, tissue-based. As to conditions: 10 pM.
A further series relates to Kidney. In words: Drug uptake in Sprague-Dawley rat kidney pelvis at 29.1 MBq after 70 to 100 mins post injection by PET imaging. As to conditions: in vivo. The series is classed as ADME, tissue-based.
Series [12] has as its target T1, Histamine H3 receptor (Rattus norvegicus, UniProt Q9QYN8). In words: Binding affinity to rat brain histamine H3 receptor after 1 hr by gamma counting.
For another series, the system named is Cerebellum. Put plainly: Drug uptake in Sprague-Dawley rat cerebellum at 0.01 nM after 45 mins by autoradiography. The note with it: 10 pM. The series is classed as ADME, tissue-based.
The test system of another series is Adrenal gland. Put plainly: Drug uptake in Sprague-Dawley rat adrenal gland at 29.1 MBq after 70 to 100 mins post injection by PET imaging. The series is classed as ADME, tissue-based. The note with it: in vivo.
Series [13] is described as follows: Metabolic stability human plasma assessed as parent compound level at 60 MBq after 90 mins by UPLC analysis. The series is classed as ADME, cell-free. The note with it: read-out: Stability.
Series [14] deals with Liver microsomes. Put plainly: Metabolic stability human liver microsome after 120 mins by UPLC analysis. Format: ADME. As to conditions: 2 h.
For series [15], the system named is MDR1. Put plainly: Apparent permeability from basolateral to apical side in MDCK2 cells expressing MDR1 by gamma counting. The series is classed as ADME, cell-based, Canis lupus familiaris, MDCK-II. The note with it: dog, MDCK-MDR1.
The nature of series [16]: Permeability from basolateral to apical side in MDCK2 cells by gamma counting. The series is classed as ADME, cell-based, Canis lupus familiaris. The note with it: dog, mdck-ii.
Series [17] can be described thus: Drug uptake in Sprague-Dawley rat harderin gland at 29.1 MBq after 70 to 100 mins post injection by PET imaging. The note with it: in vivo. Format: ADME, tissue-based.
The test system of series [18] is Rattus norvegicus. In words: Stability in Sprague-Dawley rat assessed as parent compound level at 250 MBq, iv measured 5 to 30 mins post dose. The note with it: in vivo. Format: ADME, organism-based.
In series [19] the test system is Hippocampus. In words: Drug uptake in Sprague-Dawley rat hippocampus at 0.01 nM in presence of 100 uM histamine after 45 mins by autoradiography. Format: ADME, tissue-based. As to conditions: 10 pM.
Another series relates to Intestine. In words: Drug uptake in Sprague-Dawley rat intestine at 29.1 MBq after 70 to 100 mins post injection by PET imaging. As to conditions: in vivo. Format: ADME, tissue-based.
For a further series, the system named is Liver. In words: Drug uptake in Sprague-Dawley rat liver at 29.1 MBq after 70 to 100 mins post injection by PET imaging. As to conditions: in vivo. Format: ADME, tissue-based.
Series [20] concerns MDR1. Put plainly: Efflux ratio of permeability from basolateral to apical side over apical to basolateral side in MDCK2 cells expressing MDR1 by gamma counting. Format: ADME, cell-based, Canis lupus familiaris, MDCK-II. The note with it: dog, MDCK-MDR1.
The target of series [21] is T1, Histamine H3 receptor. In words: Binding affinity to rat histamine H3 receptor low affinity site after 1 hr by Schard plot analysis.
Series [22] deals with Cerebral cortex. Put plainly: Drug uptake in Sprague-Dawley rat cerebral cortex at 0.01 nM in presence of 100 uM histamine after 45 mins by autoradiography. Format: ADME, tissue-based. As to conditions: 10 pM.
Series [23] deals with Liver microsomes. In words: Metabolic stability rat liver microsome after 120 mins by UPLC analysis. Format: ADME. The note with it: 2 h.
Series [24] deals with Striatum. In words: Drug uptake in Sprague-Dawley rat Striatum at 29.1 MBq after 70 to 100 mins post injection by PET imaging. Format: ADME, tissue-based. The note with it: in vivo.
A short description of series [25]: Drug uptake in Sprague-Dawley rat Spinal colum at 29.1 MBq after 70 to 100 mins post injection by PET imaging. Format: ADME. As to conditions: in vivo.
The subject of series [26] is Cerebral cortex. Put plainly: Drug uptake in Sprague-Dawley rat cerebral cortex at 0.01 nM after 45 mins by autoradiography. The note with it: 10 pM. Format: ADME, tissue-based.
The nature of series [27]: Drug uptake in Sprague-Dawley rat urinary bladder at 29.1 MBq after 70 to 100 mins post injection by PET imaging. The note with it: in vivo. The series is classed as ADME, tissue-based.
The subject of series [28] is Striatum. In words: Drug uptake in Sprague-Dawley rat striatum at 0.01 nM after 45 mins by autoradiography. As to conditions: 10 pM. Format: ADME, tissue-based.
A further series concerns Plasma. Put plainly: Metabolic stability human plasma at 60 MBq after 60 mins by UPLC analysis. Format: ADME, cell-free. The note with it: 1 h.
The test system of series [29] is Thalamus. Put plainly: Drug uptake in Sprague-Dawley rat thalamus at 0.01 nM after 45 mins by autoradiography. The series is classed as ADME, tissue-based. As to conditions: 10 pM.
The nature of series [30]: Drug level in Sprague-Dawley urine rat assessed as parent compound level at 250 MBq, iv measured 30 mins post dose. As to conditions: in vivo, 0.5 h. The series is classed as ADME, organism-based.
A short description of series [31]: Distribution coefficient, log D of the compound in octanol and PBS buffer at pH 7.4 by shake-flask method. The series is classed as physicochemical.
Series [32] can be described thus: Permeability from apical to basolateral side in MDCK2 cells by gamma counting. The note with it: dog, mdck-ii. The series is classed as ADME, cell-based, Canis lupus familiaris.
The nature of series [33]: Drug uptake in Sprague-Dawley rat skeleton joint at 29.1 MBq after 70 to 100 mins post injection by PET imaging. Format: ADME, tissue-based. As to conditions: in vivo.
Series [34] addresses T1, Histamine H3 receptor. Put plainly: Binding affinity to rat cerebral cortex histamine H3 receptor. The series is classed as tissue-based.
Series [35] can be described thus: Metabolic stability human liver microsomes assessed as compound oxidation after 90 mins by UPLC analysis. Format: ADME, Microsome. The note with it: read-out: Drug metabolism.
For series [36], the system named is Liver microsomes. Put plainly: Metabolic stability rat liver microsome after 90 mins by UPLC analysis. Format: ADME. The note with it: 1.5 h.

T1 sequence (Q9QYN8 whole entry): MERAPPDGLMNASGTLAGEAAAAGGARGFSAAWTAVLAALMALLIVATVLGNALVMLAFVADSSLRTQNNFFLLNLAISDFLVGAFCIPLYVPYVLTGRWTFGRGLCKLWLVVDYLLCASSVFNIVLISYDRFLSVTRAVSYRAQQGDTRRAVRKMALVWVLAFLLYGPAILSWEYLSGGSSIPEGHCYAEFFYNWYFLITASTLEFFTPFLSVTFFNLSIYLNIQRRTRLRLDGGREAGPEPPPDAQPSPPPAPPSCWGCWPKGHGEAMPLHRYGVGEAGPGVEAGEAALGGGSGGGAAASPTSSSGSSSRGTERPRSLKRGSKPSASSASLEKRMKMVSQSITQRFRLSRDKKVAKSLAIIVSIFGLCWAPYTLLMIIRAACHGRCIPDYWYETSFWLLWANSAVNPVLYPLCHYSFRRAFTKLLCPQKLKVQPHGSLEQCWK

For `[18F]C1CCN(Cc2ccc(OCCCN3CCCCC3)cc2)CC1`, the Drug uptake result with Cerebral cortex [1] is “Not Active”; in series [2], “Active”; in [3], “Active”; with Rattus norvegicus [4] it was “Active”; in [5], “Active”; in the series with Rattus norvegicus [7], “Active”. Further, the Drug uptake entry is “Not Active” with Thalamus [9]; “Not Active” in the series with Striatum [10]; “Active” in the series on Hippocampus [11]; “Active” with Kidney; “Not Active” in the series on Cerebellum; “Active” with Adrenal gland. In addition, the Drug uptake entry in [17] is “Active”; with Hippocampus [19] it was “Not Active”; in the series on Intestine, “Active”; in the series with Liver, “Active”; in the series on Cerebral cortex [22], “Not Active”; with Striatum [24], “Not Active”. Besides, the Drug uptake entry in series [25] was “Active”; in the series with Cerebral cortex [26], “Active”; in series [27], “Active”; in the series with Striatum [28], “Active”; with Thalamus [29], “Active”; in series [30], 90%. In series [33], the Drug uptake entry was “Active”. Further, the metabolised at 2 h, 60 MBq in [6] was found to be 3%. Moreover, in the series with MDR1 [8], the Papp A→B was 0.16 ×10⁻⁶ cm/s. Besides, the equilibrium dissociation constant (Kd) at Histamine H3 receptor [12] was 0.34 nM; at Histamine H3 receptor [21] it was over 3000 nM. In addition, the remaining at 1.5 h, 60 MBq in series [13] was found to be 98%. The Stability result in the series on Liver microsomes [14], in the series on Rattus norvegicus [18], with Liver microsomes [23] and in the series on Plasma was “Stable” throughout. Further, the Papp B→A in the series with MDR1 [15] was 0.12 ×10⁻⁶ cm/s. Moreover, the permeability entry in [16] and in series [32] was “permeable” in each case. The efflux ratio in the series with MDR1 [20] was 0.8. For the same molecule, the logD in series [31] was 0.35.
The molecule `O=C(O)c1cn(C2CC2)c2cc(N3CCNCC3)c(F)cc2c1=O` [CIPROFLOXACIN] returned a Ki at Histamine H3 receptor [34] of 0.654 nM.
As for `C[C@]12CC[C@H]3[C@@H](CCC4=CC(=O)CC[C@@]43C)[C@@H]1CC[C@@H]2O` [TESTOSTERONE], the metabolised at 1.5 h in [35] amounted to 60%. In the series with Liver microsomes [36], the Stability entry is recorded as “Unstable”.
Turning to `CC[C@]1(O)C[C@@H]2CN(CCc3c([nH]c4ccccc34)[C@@](C(=O)OC)(c3cc4c(cc3OC)N(C)[C@H]3[C@@](O)(C(=O)OC)[C@H](OC(C)=O)[C@]5(CC)C=CCN6CC[C@]43[C@@H]65)C2)C1` [VINBLASTINE], in the series on MDR1 [8], the Papp A→B amounted to 0.22 ×10⁻⁶ cm/s. Besides, the Papp B→A in the series with MDR1 [15] is 3.24 ×10⁻⁶ cm/s. Further, in the series with MDR1 [20], the efflux ratio is 15.

(Values after ChEMBL document CHEMBL2203285, “Radiofluorinated histamine H₃ receptor antagonist as a potential probe for in vivo PET imaging: radiosynthesis and pharmacological evaluation” (Bioorg Med Chem, 2012).)
